The values that follow come from patent US20260256925A1, “INDAZOLE DERIVATIVES AS ESTROGEN RECEPTOR DEGRADERS” (REGENTS OF THE UNIVERSITY OF MICHIGAN, priority 2022, published 2026).

A short description of assay [1]: Cell growth assay, WST-8 (compounds B1-B126). It is filed as cell-based. Conditions: 96 h; T47D cell line, WST-8, 4 days; read-out: Cell growth inhibition in T47D cell line IC50. The method in brief:
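Read-out is WST-8 absorbance at 450 nm (2.5 h, 37° C) as a fraction of vehicle control, from three separate repeats. Compound exposure lasted 4 days, starting one day after plating 1500 cells/well.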

For a further assay, the target named is T1, ER (Homo sapiens, UniProt P03372).
T1 construct: endogenous in cells; probably T47D or MCF-7
T1 sequence (P03372 1-595): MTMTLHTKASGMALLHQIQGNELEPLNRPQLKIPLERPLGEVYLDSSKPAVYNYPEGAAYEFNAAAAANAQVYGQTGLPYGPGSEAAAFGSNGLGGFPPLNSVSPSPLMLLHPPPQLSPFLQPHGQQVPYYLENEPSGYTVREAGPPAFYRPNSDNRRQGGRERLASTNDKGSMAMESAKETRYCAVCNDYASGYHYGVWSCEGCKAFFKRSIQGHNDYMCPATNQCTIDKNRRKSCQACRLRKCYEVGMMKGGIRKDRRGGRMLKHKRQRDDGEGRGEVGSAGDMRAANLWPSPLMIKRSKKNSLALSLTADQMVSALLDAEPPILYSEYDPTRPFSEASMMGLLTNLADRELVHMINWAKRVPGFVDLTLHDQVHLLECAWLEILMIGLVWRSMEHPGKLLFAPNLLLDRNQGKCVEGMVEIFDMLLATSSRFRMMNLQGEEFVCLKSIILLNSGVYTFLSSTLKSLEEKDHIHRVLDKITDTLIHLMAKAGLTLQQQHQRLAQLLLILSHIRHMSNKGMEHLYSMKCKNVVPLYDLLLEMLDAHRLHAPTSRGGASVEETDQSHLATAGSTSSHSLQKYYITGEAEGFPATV
Briefly: In-cell western blot analysis, relative ER percentage (compounds B1-B126). As to conditions: ER degradation, 16 hours, read-out: ICW DC50. The assay is classed as cell-based. Summed up: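 Readout was a two-colour infrared in-cell western of formaldehyde-fixed cells after 16 h compound exposure at 0.5% DMSO, with 40,000 or 10,000 cells/well plated the previous night. Relative ER percentage compares treated wells against untreated/DMSO-treated wells taken as 100%.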

Consider `C[C@@H]1Cc2c(ccc3[nH]ncc23)[C@@H](c2ccc(N3CC4(CCN(C(=O)CN5CCC6(CC5)COc5c6ccc6c5CN(C5CCC(=O)NC5=O)C6=O)CC4)C3)cn2)N1CC(F)(F)F` (stereo partly drawn) [Compound B64, 3-(1′-(2-(2-(6-((6S,8R)-8-methyl-7-(2,2,2-trifluoroethyl)-6,7,8,9-tetrahydro-3H-pyrazolo[4,3-f]isoquinolin-6-yl)pyridin-3-yl)-2,7-diazaspiro[3.5]nonan-7-yl)-2-oxoethyl)-6-oxo-6,8-dihydro-2H,7H-spiro[furo[2,3-e]isoindole-3,4′-piperidin]-7-yl)piperidine-2,6-dione], for which the IC50 (as a rule, the midpoint of a concentration-inhibition curve) in assay [1] was under 1 nM. For the same compound, at ER, the DC50 (commonly the concentration at which degradation of the target reaches its halfway point) is under 10 nM.

Consider `C[C@@H]1Cc2c(ccc3[nH]ncc23)[C@@H](c2ccc(N3CCC4(CC3)CC(CN3CCN5c6ccc(C(=O)N[C@H]7CCC(=O)NC7=O)nc6OC[C@H]5C3)CO4)cn2)N1CC(F)(F)F` (stereo partly drawn) [Compound B93, (4aR)-N-((S)-2,6-dioxopiperidin-3-yl)-3-((8-(6-((6S,8R)-8-methyl-7-(2,2,2-trifluoroethyl)-6,7,8,9-tetrahydro-3H-pyrazolo[4,3-f]isoquinolin-6-yl)pyridin-3-yl)-1-oxa-8-azaspiro[4.5]decan-3-yl)methyl)-1,2,3,4,4a,5-hexahydropyrazino[1,2-d]pyrido[2,3-b][1,4]oxazine-8-carboxamide], for which the IC50 in assay [1] was in the range of 1 to 10 nM. The DC50 at ER was 10 to 100 nM.

On to `COc1c2c(cc3c1CN(C1CCC(=O)NC1=O)C3=O)CN(CC(=O)N1CCC3(CC1)CCN(c1cc(F)c([C@@H]4c5ccc6[nH]ncc6c5C[C@@H](C)N4CC(F)F)c(F)c1)CC3)C2` (stereo partly drawn) [Compound B72, 3-(6-(2-(9-(4-((6S,8R)-7-(2,2-difluoroethyl)-8-methyl-6,7,8,9-tetrahydro-3H-pyrazolo[4,3-f]isoquinolin-6-yl)-3,5-difluorophenyl)-3,9-diazaspiro[5.5]undecan-3-yl)-2-oxoethyl)-4-methoxy-1-oxo-3,5,6,7-tetrahydropyrrolo[3,4-f]isoindol-2(1H)-yl)piperidine-2,6-dione], for which the IC50 in assay [1] is 1 to 10 nM. The DC50 on ER is under 10 nM.

`COc1cc(N2CCC3(CCN(CC(=O)N4Cc5cc6c(cc5C4)C(=O)N(C4CCC(=O)NC4=O)C6=O)CC3)CC2)ccc1[C@@H]1c2ccc3[nH]ncc3c2C[C@@H](C)N1CC(F)F` (stereo partly drawn) [Compound B51, 6-(2-(9-(4-((6S,8R)-7-(2,2-difluoroethyl)-8-methyl-6,7,8,9-tetrahydro-3H-pyrazolo[4,3-f]isoquinolin-6-yl)-3-methoxyphenyl)-3,9-diazaspiro[5.5]undecan-3-yl)acetyl)-2-(2,6-dioxopiperidin-3-yl)-6,7-dihydropyrrolo[3,4-f]isoindole-1,3(2H,5H)-dione]: the IC50 in assay [1] was over 10 nM. Also, the DC50 at ER is 10 to 100 nM.

Regarding `C[C@@H]1Cc2c(ccc3[nH]ncc23)[C@@H](c2c(F)cc(NC3CC4(C3)CN(CC(=O)N3Cc5cc6c(cc5C3)C(=O)N(C3CCC(=O)NC3=O)C6=O)C4)cc2F)N1CC(F)F` (stereo partly drawn) [Compound B45, 6-(2-(6-((4-((6S,8R)-7-(2,2-difluoroethyl)-8-methyl-6,7,8,9-tetrahydro-3H-pyrazolo[4,3-f]isoquinolin-6-yl)-3,5-difluorophenyl)amino)-2-azaspiro[3.3]heptan-2-yl)acetyl)-2-(2,6-dioxopiperidin-3-yl)-6,7-dihydropyrrolo[3,4-f]isoindole-1,3(2H,5H)-dione], the IC50 in assay [1] was in the range of 1 to 10 nM. For the same compound, at ER, the DC50 lay in the range of 10 to 100 nM.

Turning to `C[C@@H]1Cc2c(ccc3[nH]ncc23)[C@@H](c2ccc(N3CCC4(CCN(CC(=O)N5Cc6cc7c(cc6C5)C(=O)N(C5CCC(=O)NC5=O)C7=O)CC4)CC3)cn2)N1CC(F)(F)F` (stereo partly drawn) [Compound B48, 2-(2,6-dioxopiperidin-3-yl)-6-(2-(9-(6-((6S,8R)-8-methyl-7-(2,2,2-trifluoroethyl)-6,7,8,9-tetrahydro-3H-pyrazolo[4,3-f]isoquinolin-6-yl)pyridin-3-yl)-3,9-diazaspiro[5.5]undecan-3-yl)acetyl)-6,7-dihydropyrrolo[3,4-f]isoindole-1,3(2H,5H)-dione], the IC50 in assay [1] was over 10 nM. Moreover, at ER, the DC50 was over 100 nM.
